Source: BindingDB's records for doi:10.1016/j.bmcl.2004.01.051 (Pierre and Marie Curie University, 2004)

The compounds below were run against Cyclopropane-fatty-acyl-phospholipid synthase (Escherichia coli) (UniProt P0A9H7) (assay: Inhibition constant against Escherichia coli cyclopropane fatty acid synthase).
Chain of Cyclopropane-fatty-acyl-phospholipid synthase (Escherichia coli) (P0A9H7 whole entry, looked up): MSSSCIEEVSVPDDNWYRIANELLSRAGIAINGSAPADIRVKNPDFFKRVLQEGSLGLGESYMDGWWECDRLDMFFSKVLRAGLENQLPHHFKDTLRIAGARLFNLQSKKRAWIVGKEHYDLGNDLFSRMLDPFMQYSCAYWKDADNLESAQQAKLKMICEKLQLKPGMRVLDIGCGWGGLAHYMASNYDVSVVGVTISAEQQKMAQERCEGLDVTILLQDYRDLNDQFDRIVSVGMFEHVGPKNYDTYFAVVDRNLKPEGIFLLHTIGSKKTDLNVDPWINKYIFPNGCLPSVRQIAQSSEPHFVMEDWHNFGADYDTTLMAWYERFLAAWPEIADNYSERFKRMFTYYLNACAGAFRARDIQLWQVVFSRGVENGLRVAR

Ki [µM] | Structure (SMILES)
30 | Nc1ncnc2c1ncn2[C@@H]1O[C@H](C[S+]([O-])CC[C@H](N)C(=O)O)[C@@H](O)[C@H]1O (stereo partly drawn) [2-Amino-4-[(2S,3S,4R,5R)-5-(6-amino-purin-9-yl)-3,4-dihydroxy-tetrahydro-furan-2-ylmethanesulfinyl]-butyric acid]

Target: Cyclopropane-fatty-acyl-phospholipid synthase (Escherichia coli) (UniProt P0A9H7)
Assay: as above
Remark: another data set of the same source

Structure (SMILES) | Ki [µM]
C[S+](C)C[C@H]1O[C@@H](n2cnc3c(N)ncnc32)[C@H](O)[C@@H]1O | 2500
C[S+]([O-])C[C@H]1O[C@@H](n2cnc3c(N)ncnc32)[C@H](O)[C@@H]1O (stereo partly drawn) [(2R,3R,4S,5S)-2-(6-Amino-purin-9-yl)-5-methanesulfinylmethyl-tetrahydro-furan-3,4-diol] | 500
CS(=O)(=O)C[C@H]1O[C@@H](n2cnc3c(N)ncnc32)[C@H](O)[C@@H]1O [(2R,3R,4S,5S)-2-(6-Amino-purin-9-yl)-5-methanesulfonylmethyl-tetrahydro-furan-3,4-diol] | 220
CSC[C@H]1O[C@@H](n2cnc3c(N)ncnc32)[C@H](O)[C@@H]1O [(2R,3R,4S,5S)-2-(6-aminopurin-9-yl)-5-(methylsulfanylmethyl)oxolane-3,4-diol] | 1500
Nc1ncnc2c1ncn2[C@@H]1O[C@H](CSCC[C@H](N)C(=O)O)[C@@H](O)[C@H]1O [AdoHcy] | 150

These reach a lower Ki. Values come first.

Ki [µM] | Structure (SMILES)
100 | Nc1ncnc2c1ncn2[C@@H]1O[C@H](CS(=O)(=O)CC[C@H](N)C(=O)O)[C@@H](O)[C@H]1O [2-Amino-4-[(2S,3S,4R,5R)-5-(6-amino-purin-9-yl)-3,4-dihydroxy-tetrahydro-furan-2-ylmethanesulfonyl]-butyric acid]
50 | Nc1ncnc2c1ncn2[C@@H]1O[C@H](C[S+]([O-])CC[C@H](N)C(=O)O)[C@@H](O)[C@H]1O (stereo partly drawn) [2-Amino-4-[(2S,3S,4R,5R)-5-(6-amino-purin-9-yl)-3,4-dihydroxy-tetrahydro-furan-2-ylmethanesulfinyl]-butyric acid]
30 | Nc1ncnc2c1ncn2[C@@H]1O[C@H](CSCCC(N)C(=O)O)[C@@H](O)[C@H]1O (stereo partly drawn) [2-Amino-4-[(2S,3S,4R,5R)-5-(6-amino-purin-9-yl)-3,4-dihydroxy-tetrahydro-furan-2-ylmethylsulfanyl]-butyric acid]
